According to ChEMBL document CHEMBL1201862, “PubChem BioAssay data set” (2004):
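Five compound concentrations were applied to cells in 96-well plates for 48 hours; endpoints were derived by simple linear interpolation of the resulting dose-response curve. GI50 = concentration required for 50% inhibition of growth.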 Calls of active or inactive are those of the source. No stated cut-off is given here; in the data, active = GI50 up to about 1.1 µM and inactive = higher.

How the values were obtained:
Assay in all cases: NCI-60 cell line screen, 48 h
A498 = test system: A498
A549 = test system: A549
DU-145 = test system: DU-145
HCT-15 = test system: HCT-15
HOP-92 = test system: HOP-92
Hs-578T = test system: Hs-578T
LOX IMVI = test system: LOX IMVI
M14 = test system: M14
MDA-MB-435 = test system: MDA-MB-435
PC-3 = test system: PC-3
SK-MEL-5 = test system: SK-MEL-5
SW-620 = test system: SW-620
TK-10 = test system: TK-10
UACC-257 = test system: UACC-257
CCRF-CEM = test system: CCRF-CEM

Structure (SMILES) | GI50 (A498) | GI50 (A549) | GI50 (DU-145) | GI50 (HCT-15) [µM] | GI50 (HOP-92) | GI50 (Hs-578T) | GI50 (LOX IMVI) | GI50 (M14) | GI50 (MDA-MB-435) | GI50 (PC-3) | GI50 (SK-MEL-5) | GI50 (SW-620) | GI50 (TK-10) | GI50 (UACC-257) | GI50 (CCRF-CEM)
O=C(O)C1C(Br)(c2ccccc2)C1(Br)c1ccccc1 (centres undefined) | 25.5 µM (inactive) | 39 µM (inactive) | > 100 µM (inactive) | 18.5 | 42.7 µM (inactive) | 37.8 µM (inactive) | 22.2 µM (inactive) | 48.2 µM (inactive) | 41.2 µM (inactive) | 36.5 µM (inactive) | 28.8 µM (inactive) | 31.4 µM (inactive) | 33.7 µM (inactive) | 48.9 µM (inactive) | –
CCCCN=C(OC1C=CCCC1)SC (centres undefined) | 51.8 µM (inactive) | > 100 µM (inactive) | > 100 µM (inactive) | > 100 | 43.4 µM (inactive) | – | – | > 100 µM (inactive) | > 100 µM (inactive) | > 100 µM (inactive) | > 100 µM (inactive) | > 100 µM (inactive) | > 100 µM (inactive) | > 100 µM (inactive) | > 100 µM (inactive)
O=S(=O)(OI(O)CC(F)(F)F)C(F)(F)F | > 100 µM (inactive) | > 100 µM (inactive) | > 100 µM (inactive) | > 100 | > 100 µM (inactive) | – | > 100 µM (inactive) | > 100 µM (inactive) | > 100 µM (inactive) | > 100 µM (inactive) | > 100 µM (inactive) | > 100 µM (inactive) | > 100 µM (inactive) | > 100 µM (inactive) | > 100 µM (inactive)
CN(C)C(=S)SCc1ccccc1 | 62.5 µM (inactive) | > 100 µM (inactive) | > 100 µM (inactive) | > 100 | 88.3 µM (inactive) | > 100 µM (inactive) | > 100 µM (inactive) | > 100 µM (inactive) | > 100 µM (inactive) | – | > 100 µM (inactive) | > 100 µM (inactive) | > 100 µM (inactive) | 79.8 µM (inactive) | > 100 µM (inactive)
CCN(CC)C(=S)N/N=C(\C)c1cccc(C)n1 | 0.183 µM (active) | 0.259 µM (active) | 0.484 µM (active) | < 0.0249 | 1.49 µM (inactive) | 23.4 µM (inactive) | < 0.01 µM (active) | < 0.041 µM (active) | 0.377 µM (active) | < 0.01 µM (active) | 0.0593 µM (active) | – | 0.832 µM (active) | < 0.01 µM (active) | < 0.01 µM (active)
Cc1ccc(S(=O)(=O)N/N=C2/C3CCC(C3)C2c2ccccc2)cc1 (centres undefined) | – | > 100 µM (inactive) | > 100 µM (inactive) | > 100 | > 100 µM (inactive) | > 100 µM (inactive) | > 100 µM (inactive) | > 100 µM (inactive) | > 100 µM (inactive) | > 100 µM (inactive) | > 100 µM (inactive) | > 100 µM (inactive) | > 100 µM (inactive) | > 100 µM (inactive) | > 100 µM (inactive)
CC1CN=C(N(C(=O)Nc2ccc(Cl)c(Cl)c2)c2ccccc2)S1 (centres undefined) | > 100 µM (inactive) | 53.7 µM (inactive) | 91.8 µM (inactive) | 27 | 38.9 µM (inactive) | > 100 µM (inactive) | 28.7 µM (inactive) | 35.3 µM (inactive) | – | 37.8 µM (inactive) | 20.7 µM (inactive) | 72.1 µM (inactive) | 38.9 µM (inactive) | 68.5 µM (inactive) | 31.9 µM (inactive)
CCC(=O)ONC(=O)Cn1ccc([N+](=O)[O-])n1 | – | > 100 µM (inactive) | > 100 µM (inactive) | – | > 100 µM (inactive) | > 100 µM (inactive) | > 100 µM (inactive) | > 100 µM (inactive) | > 100 µM (inactive) | > 100 µM (inactive) | > 100 µM (inactive) | > 100 µM (inactive) | > 100 µM (inactive) | > 100 µM (inactive) | > 100 µM (inactive)
Cc1oc(N)c(S(=O)(=O)c2cc3ccccc3[n+]([O-])c2N)c1C | > 100 µM (inactive) | > 100 µM (inactive) | > 100 µM (inactive) | > 100 | > 100 µM (inactive) | > 100 µM (inactive) | > 100 µM (inactive) | > 100 µM (inactive) | > 100 µM (inactive) | > 100 µM (inactive) | > 100 µM (inactive) | > 100 µM (inactive) | > 100 µM (inactive) | > 100 µM (inactive) | –
Cn1nc(C(=O)N2CC(CCl)c3c2cc(N)c2ccccc32)cc1NC(=O)Nc1cc(C(=O)N2CC(CCl)c3c2cc(N)c2ccccc32)nn1C (centres undefined) | 8.69 µM (inactive) | 0.499 µM (active) | 0.0116 µM (active) | 44.3 | – | – | < 0.01 µM (active) | 0.349 µM (active) | 0.219 µM (active) | 0.165 µM (active) | 0.192 µM (active) | 0.0271 µM (active) | > 100 µM (inactive) | 0.521 µM (active) | < 0.01 µM (active)
COc1ccccc1-c1cc(O)c2c(C)cc(C)nc2n1 | 39.6 µM (inactive) | 59.7 µM (inactive) | > 100 µM (inactive) | 58.3 | 31.8 µM (inactive) | > 100 µM (inactive) | 75.2 µM (inactive) | 79.8 µM (inactive) | – | – | – | 61.7 µM (inactive) | > 100 µM (inactive) | 50.5 µM (inactive) | 47.9 µM (inactive)
